This note sets out measurements from PubChem BioAssay (NCI).

Holding throughout (experiment): NCI-60 cell line screen, 48 h
Test [1] concerns SNB-19 CNS.
In test [2] the test system is K-562 leukemia.
For test [3], the system named is SW-620 colon.
For test [4], the system named is T-47D breast.
For test [5], the system named is A498 renal.
Test [6] concerns HOP-92 NSCLC.
Test [7] deals with A549 NSCLC.
Test [8] concerns RPMI-8226 leukemia.
For test [9], the system named is OVCAR-3 ovarian.
Test [10] deals with M14 melanoma.

The structures appear in SMILES notation.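 Assay format: 96-well plates, 48-hour exposure. TGI: total growth inhibition.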

On to `O=C(O)C(NCc1ccccc1)C(NCc1ccccc1)C(=O)O` (stereo not given), for which the TGI in [1], in test [2], in [3], in test [4], in [5] and in test [6] was above 100 µM each time. For the same compound, the TGI in test [7], in test [8], in test [9] and in test [10] was above 100 µM each time.

In the case of `CN1CCN(C(=S)N2CCN(C)CC2)CC1`, the TGI in test [1], in [2], in test [3], in test [4], in test [5] and in test [6] was above 100 µM throughout. The TGI in test [7] was above 100 µM; in test [8] it was above 76.7 µM; in test [9], above 100 µM; in test [10], above 100 µM.

Turning to `CN(C)CCCC12CCCCC1=Nc1ccccc12` (stereo not given), the TGI in [1], in test [2], in [3], in [4], in test [5] and in test [6] was above 100 µM throughout. Besides, the TGI in test [7], in test [8], in test [9] and in test [10] was above 100 µM throughout.

Take `NC(=O)C(C(N)=O)=C(O)C(=O)/C=C(\O)c1ccccc1`: the TGI in test [1] is above 100 µM; in test [2], 29.9 µM; in test [3], above 100 µM; in [4], above 100 µM; in test [5], above 100 µM; in test [6], above 100 µM. Moreover, the TGI in test [7] was above 100 µM; in [8] it was 31.7 µM; in test [9], above 100 µM; in [10], above 100 µM.

`CCOC(=O)NC(Nc1ccc(S(=O)(=O)Nc2nc(C)cc(C)n2)cc1)(C(=O)OCC)C(F)(F)F` (stereo not given): the TGI in test [1], in test [2], in test [3], in test [4], in test [5] and in [6] was above 100 µM throughout. Moreover, the TGI in test [7], in test [8], in test [9] and in [10] was above 100 µM each time.

For `CCC(C)OC(=O)/C(Br)=C1/OC(=O)c2ccccc2-c2ccccc21` (stereo not given), the TGI is above 100 µM in test [1]; 40.6 µM in test [2]; above 100 µM in [3]; above 100 µM in test [4]; above 100 µM in test [5]; 81.9 µM in [6]. Moreover, the TGI in test [7] was above 100 µM; in test [8] it was 87.9 µM; in test [9], above 100 µM; in [10] it was above 100 µM.

Turning to `COc1cc2c(C)cc(O)cc2c2cc(O)c(C)cc12`, the TGI in [1] worked out at 21.4 µM; in test [2], 9.94 µM; in test [3], 19.8 µM; in test [4] it was 20.5 µM; in [5], 21.3 µM; in test [6], 22.3 µM. Besides, the TGI in [7] is 23.8 µM; in test [8], 6.64 µM; in test [9] it was 22.3 µM; in test [10] it was 6.67 µM.

As to `COC(=O)C1=C(O)C(C(=O)OC)[C@]2(O)[C@H](C(=O)OC)[C@H]1C[C@@H](c1ccc(C(F)(F)F)cc1)[C@H]2C(=O)OC` (stereo not given in full), the TGI in test [1] is 68.9 µM; in test [2], above 100 µM; in [3], above 100 µM; in test [4], above 100 µM; in [5], 13.9 µM; in [6], 34 µM. Also, the TGI in test [7] is above 100 µM; in [8], above 100 µM; in [9], 54.1 µM; in test [10], 29.4 µM.

`Cn1ccc(C(=O)NCCN(CCNC(=O)c2ccn(C)c(=O)c2O)CCNC(=O)c2cccc(=O)n2O)c(O)c1=O`: the TGI in test [1], in test [2], in test [3], in [4], in test [5] and in [6] was above 100 µM throughout. In addition, the TGI in [7], in [8], in [9] and in test [10] was above 100 µM throughout.

As to `CCOC1OC(=O)c2cc3ccc4c(c3c(-c3ccc5c(c3)OCO5)c21)OCO4` (stereo not given), the TGI in [1], in [2], in test [3], in test [4], in [5] and in [6] was above 100 µM in each case. Besides, the TGI was above 100 µM in test [7], above 100 µM in test [8], 3.77 µM in test [9] and 79.3 µM in [10].

For the compound `N#Cc1c(N)nc2n[nH]c(N)c2c1-c1ccc(Cl)cc1`, the TGI in test [1] was above 59.9 µM; in test [2] it was above 100 µM; in [3] it was above 100 µM; in [4], 4.62 µM; in test [5] it was 3.14 µM; in [6], 6.14 µM. Moreover, the TGI in test [7] was above 72.9 µM; in test [8] it was above 100 µM; in [9] it was 18.2 µM; in test [10], above 39.8 µM.

In the case of `O=C(/C=C/c1cc2ccccc2o1)N1CCN(c2ccccn2)CC1`, the TGI in test [1], in [2], in test [3], in [4], in test [5] and in test [6] was above 100 µM in each case. Also, the TGI in [7], in test [8], in [9] and in test [10] was above 100 µM each time.

As for `COC(=O)c1ccccc1/C=C1\Cc2ccc(C)c(C)c2C1=O`, the TGI was above 100 µM in [1]; above 100 µM in [2]; above 100 µM in test [3]; above 100 µM in test [4]; above 100 µM in test [5]; 92.5 µM in test [6]. Further, the TGI in test [7], in test [8], in [9] and in test [10] was above 100 µM in each case.

Consider `Cc1cc(S(=O)(=O)Nc2n[nH]c(N)n2)c(SCC(=O)O)cc1Cl`, for which the TGI in test [1], in [2], in test [3], in test [4], in test [5] and in [6] was above 10 µM throughout. Moreover, the TGI in [7], in test [8], in test [9] and in [10] was above 10 µM in each case.

For `O=C1/C(=C/c2ccccc2S)N=C(c2ccccc2)N1c1nc2c(Cl)cc(Cl)cc2s1`, the TGI is 84.5 µM in test [1]; 81.5 µM in test [2]; above 100 µM in test [3]; above 100 µM in test [4]; 40.7 µM in test [5]; 49.6 µM in test [6]. The TGI in test [7] was found to be 54.3 µM; in [8] it was 54.1 µM; in [9], 40.2 µM; in [10] it was 66.2 µM.

On to `Fc1cc(-c2cc(-c3ccccc3)no2)c(Cl)cc1Cl`, for which the TGI was above 62.5 µM in test [1]; above 56.4 µM in test [2]; above 63.3 µM in [3]; above 57.7 µM in test [4]; above 54 µM in [5]; 35.7 µM in test [6]. The TGI in test [7] is above 41.6 µM; in test [8] it was 34 µM; in test [9], above 40.1 µM; in [10] it was above 54.7 µM.

With `O=C(Oc1ccccn1)c1cc2cc(CCl)ccc2oc1=O`, the TGI in test [1] was 71.2 µM; in [2], above 100 µM; in test [3], above 100 µM; in test [4], above 100 µM; in test [5] it was above 100 µM; in test [6], 39.3 µM. For the same compound, the TGI was above 100 µM in test [7], above 100 µM in [8], 38.1 µM in [9] and above 100 µM in [10].

For the compound `CN(C)C1(N(C)C)Oc2c(c(=O)n(C)c(=O)n2C)C(c2ccccc2)C1(F)F` (stereo not given), the TGI in test [1], in test [2], in test [3], in test [4], in test [5] and in test [6] was above 100 µM throughout. The TGI in test [7], in test [8], in test [9] and in test [10] was above 100 µM throughout.

For `Cc1cc2oc(=N)c(C#N)c(C)c2cc1C`, the TGI in test [1], in test [2], in test [3], in [4], in test [5] and in test [6] was above 100 µM throughout. For the same compound, the TGI in [7], in [8], in test [9] and in test [10] was above 100 µM each time.

Consider `Cc1nn(-c2ccccc2)c2c1C(c1ccc(Cl)cc1)NC(=S)N2` (stereo not given), for which the TGI in [1] is above 100 µM; in test [2], above 100 µM; in test [3], 71.1 µM; in [4] it was above 100 µM; in test [5], 67.1 µM; in test [6], 35.2 µM. Besides, the TGI in test [7] was 69.5 µM; in test [8], 48.7 µM; in [9], above 100 µM; in test [10] it was above 100 µM.

Take `COc1ccc(-[n+]2nc(S(=O)(=O)O)c(/C=C/c3ccc(N(C)C)cc3)cc2C#N)cc1`: the TGI in test [1], in test [2], in test [3], in test [4], in test [5] and in [6] was above 100 µM in each case. Also, the TGI in test [7], in test [8], in test [9] and in [10] was above 100 µM each time.
